In patent publication US8217028B2, “1,2,4-oxadiazole indole compounds” (Glaxo Group Limited, priority 2008, dated 2012):
Each block holds one compound with its values, some of them ahead of it.

Molecular target: T1, human S1P1 receptor (EDG1) (Homo sapiens, UniProt P21453)
T1 construct: expressed in transfected cells; host or cells: rat hepatoma cells (membranes, GTPγS assay) or Tango GPCR-bla U2OS cells (Tango assay)
Experiment: S1P1 GTPγS assay or S1P1 Tango assay (at least one of the above assays)
Format: cell-based
Details: in at least one of the S1P1 GTPγS and S1P1 Tango assays
Method: For membrane preparations all steps were performed at 4° C. Rat hepatoma cells stably expressing the human S1P1 receptor or Rat Basophilic Leukaemia cells (RBL) stably expressing human S1P3 receptor were grown to 80% confluency before being harvested into 10 ml Phospho-Buffered Saline (PBS) and centrifuged at 1200 rpm for 5 minutes. After removal of the supernatant, the pellet was re-suspended and cells were homogenised within a glass Warning blender for 2 bursts of 15 secs in 200 mls of buffer (50 mM HEPES, 1 mM leupeptin, 25 μg/ml bacitracin, 1 mM EDTA, 1 mM PMSF, 2 μM pepstatin A). The blender was plunged into ice for 5 mins after the first burst and 10-40 mins after the final burst to allow foam to dissipate. The material was then spun at 500 g for 20 mins and the supernatant spun for 36 mins at 48,000 g. The pellet was resuspended in the same buffer as above but without PMSF and pepstatin A. The material was then forced through a 0.6 mm needle, made up to the required volume, (usually ×4 the volume of the original cell pellet), aliquoted and stored frozen at −80° C.
Human S1P1 rat hepatoma membranes (1.5 μg/well) were adhered to a wheatgerm agglutinin (WGA)-coated scintillation proximity assay (SPA) beads (0.125 mg/well) in assay buffer (HEPES 20 mM, MgCl2 10 mM, NaCl 100 mM and pH adjusted to 7.4 using KOH 5M, GDP 10 μM FAC (final assay concentration) and saponin 90 μg/ml FAC was also added).
After 30 minutes pre-coupling on ice the bead and membrane suspension was dispensed into a white Greiner polypropylene LV384-well plate (5 μl/well), containing 0.1 μl of the compound. 5 μl/well [^35S]-GTPγS (0.5 nM final radioligand conc) made up in assay buffer was then added to agonist plates. The final assay cocktail (10.1 μl) was then centrifuged at 1000 rpm for 5 minutes then read immediately on a Viewlux reader.
All test compounds were dissolved in DMSO at a concentration of 10 mM and were prepared in 100% DMSO using a 1 in 4 dilution step to provide 11 point dose response curves. The dilutions were transferred to the assay plates ensuring that the DMSO concentration was constant across the plate for all assays. All data was normalized to the mean of 16 high and 16 low control wells on each plate. A four parameter curve fit was then applied.
Recombinant EDG1-bla/U2OS cells (contain the human Endothelial Differentiation Gene 1 (EDG1) linked to a TEV protease site and a Ga14-VP16 transcription factor stably integrated into the Tango GPCR-bla U2OS parental cell line) were suspended in assay medium (Invitrogen Freestyle Expression Medium) at a density of 312, 500 cells/ml. Add 100 μl/well of the assay medium to the cell-free control wells (column 12) and 100 μl/well of the cell suspension to the test compound wells (row 2-8, column 1-10), the unstimulated control wells (DMSO) (column 11), and stimulated control wells (S1P) (row 1, column 1-10) in a Corning black-well, clear bottom 96-well plate. Cells were incubated at 37° C., 5% CO2 for 44-48 h. […]
After incubation at 37° C., 5% CO2 for 5 h, 25 μl of 6× substrate mixture (6 μl Solution A (1 mg LiveBLAzer™-FRET B/G substrate (CCF4-AM) in 912 μl DMSO) plus 60 μl Solution B plus 934 μl Solution C) was added to each well and incubate at room temperature for 2 h in dark. The plate was finally read on EnVision for two emission channels (460 nm and 530 nm). […]

T1 sequence (P21453 whole entry): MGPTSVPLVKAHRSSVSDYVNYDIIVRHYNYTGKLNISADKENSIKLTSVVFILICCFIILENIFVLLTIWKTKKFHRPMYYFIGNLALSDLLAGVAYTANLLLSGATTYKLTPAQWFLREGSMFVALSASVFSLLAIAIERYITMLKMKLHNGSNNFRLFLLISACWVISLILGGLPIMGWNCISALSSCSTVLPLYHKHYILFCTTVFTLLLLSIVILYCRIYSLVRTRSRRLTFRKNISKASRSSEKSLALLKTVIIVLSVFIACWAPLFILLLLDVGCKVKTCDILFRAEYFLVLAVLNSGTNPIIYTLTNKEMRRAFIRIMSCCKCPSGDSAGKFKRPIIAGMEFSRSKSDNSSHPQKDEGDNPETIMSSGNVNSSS

Structure (SMILES): CC(C)Oc1ccc(-c2nc(-c3ccc4[nH]c(C(=O)O)cc4c3)no2)cc1Cl [Example 8, Sodium 5-(5-{3-chloro-4-[(1-methylethyl)oxy]phenyl}-1,2,4-oxadiazol-3-yl)-1H-indole-2-carboxylate]
EC50: < 10 µM

Structure (SMILES): CCCCn1cc(CCC(=O)O)c2cccc(-c3noc(-c4ccc(OC(C)C)c(Cl)c4)n3)c21 [Example 29, 3-[1-butyl-7-(5-{3-chloro-4-[(1-methylethyl)oxy]phenyl}-1,2,4-oxadiazol-3-yl)-1H-indol-3-yl]propanoic acid]
EC50: < 10 µM

Structure (SMILES): CC(C)Cn1cc(CCC(=O)O)c2cccc(-c3noc(-c4ccc(OC(C)C)c(Cl)c4)n3)c21 [Example 30, 3-[7-(5-{3-chloro-4-[(1-methylethyl)oxy]phenyl}-1,2,4-oxadiazol-3-yl)-1-(2-methylpropyl)-1H-indol-3-yl]propanoic acid]
EC50: < 10 µM

The remaining lines, values ahead:

EC50: < 10 µM
Structure (SMILES): COc1ccc(-c2nc(-c3cccc4c(CCC(=O)O)cn(C)c34)no2)cc1OC [Example 44, 3-(7-{5-[3,4-bis(methyloxy)phenyl]-1,2,4-oxadiazol-3-yl}-1-methyl-1H-indol-3-yl)propanoic acid]

EC50: < 10 µM
Structure (SMILES): CC(C)Oc1ncc(-c2nc(-c3ccc4c(CN5CCC(C(=O)O)CC5)c[nH]c4c3)no2)cc1Cl [Example 78, 1-{[6-(5-{5-chloro-6-[(1-methylethyl)oxy]-3-pyridinyl}-1,2,4-oxadiazol-3-yl)-1H-indol-3-yl]methyl}-4-piperidinecarboxylic acid]
